Source: patent US12343328B2, “Dialkyl tryptamines and their therapeutic uses” (CAAMTECH, INC., priority 2020, dated 2025)

Test system: murine Head Twitch Response
Assay: murine Head Twitch Response (HTR)
Conditions: Mus musculus, read-out: HTR ED50

Row | Structure (SMILES) | ED50
1 | CN(C)CCc1c[nH]c2cccc(O)c12 [Psilocin] | 0.54 µmol/kg
2 | CN(C)CCc1c[nH]c2cccc(OP(=O)(O)O)c12 [Psilocybin] | 1.02 µmol/kg
